“And” between values parts separate entries of the source, which are not always exact repeats. Identical values can stand only once.
Experiments:
[1] = test system: WT HeLa cells expressing GFP-TDP-4FL; assay: Flow cytometry of GFP-TDP-4FL integrated fluorescence, WT HeLa; assay type: cell-based; details: for Integrated Fluorescence WT (Normalized to CHX): replicate values
Outline: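 Trypsinised cells resuspended in colorless DMEM with 2% FBS and analysed by flow cytometry. Integrated fluorescence taken as percent GFP-positive cells multiplied by GFP median fluorescence.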

R159H VCP = biological target: T1, R159H VCP (Mus musculus, UniProt Q01853, R159H); assay: MESG-PNP ATPase assay, recombinant R159H VCP; assay type: biochemical
T1 construct: in the full-length recombinant VCP; His (N); made in house; host or cells: Escherichia coli BL21-CodonPlus (DE3)-RIL
Outline: (§1)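 Phosphate release (MESG-PNP, A360) from 50 nM recombinant mouse VCP mutant, with 25 μM compound versus 2% DMSO, at 1mM ATP. Read >15 min at 25°C, quantified against a phosphate standard curve; initial velocity from linear fit of the linear portion.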

recombinant WT VCP [2] = biological target: T2, recombinant WT VCP (Mus musculus, UniProt Q01853); assay: Kinase-Glo ATPase assay, recombinant WT VCP; assay type: biochemical; details: for ATP consumed: WT VCP no UN
T2 construct: in the full-length recombinant VCP; His (N); made in house; host or cells: Escherichia coli BL21-CodonPlus (DE3)-RIL
Outline: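 Mouse VCP (50 nM), alone or with 50 nM UFD1/NPLOC4, was incubated 1 h at 25 °C with 62.5 μM ATP and a range of compound concentrations in HEPES pH 7.5, 100 mM NaCl, 10 mM MgCl2, 2% DMSO. Remaining ATP was read by Kinase-Glo luminescence. Dose data were fit to a 3-parameter curve; ATP-varied data were fit to Michaelis-Menten.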

recombinant WT VCP [3] = biological target: T2, recombinant WT VCP; assay: MESG-PNP (EnzCheck) phosphate release ATPase assay, WT VCP; assay type: biochemical; details: for ATPase activity v0/ET: 25 μM compound, replicate experiments
Outline: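 50 nM mouse WT VCP with 25 μM compound, 2% DMSO and varied ATP at 25°C; phosphate release followed by MESG-PNP absorbance at 360 nm for over 15 min against a phosphate standard curve. Initial rates from the linear portion, fitted to a 3-parameter dose curve or to Michaelis-Menten.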

luciferase = assay: Luciferase counter assay: Kinase-Glo with 62.5 μM ATP without recombinant VCP; assay type: biochemical; details: for measured ATP consumed (nmol) without VCP: replicate values
Outline: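 Counter-screen with no recombinant VCP: 62.5 μM ATP and rising compound concentrations in ATPase buffer (25 mM HEPES pH 7.5, 100 mM NaCl, 10 mM MgCl2, 2% DMSO), 1 h at 25°C. Remaining ATP was read as Kinase-Glo luminescence after 20 min at room temperature; n=3, linear mixed effects model.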

R155H VCP = biological target: T3, R155H VCP (Mus musculus, UniProt Q01853, R155H); assay: MESG-PNP ATPase assay, recombinant R155H VCP; assay type: biochemical
T3 construct: in the full-length recombinant VCP; His (N); made in house; host or cells: Escherichia coli BL21-CodonPlus (DE3)-RIL
Outline: as §1

[4] = test system: WT HeLa cells expressing TDP-4FL; assay: Immunofluorescence of TDP-4FL inclusion morphology, WT HeLa; assay type: cell-based; details: MG132 17 h, then CHX with 5 μM UP109 4 h
Experimental: HeLa Cells were plated onto glass coverslips and transfected with TDP-4FL using Fugene HD for 24 hours. Cells were fixed with 4% paraformaldehyde (Electron Microscopy Sciences), permeabilized with 0.1% Triton-X (Thermo Fisher Scientific), and blocked with 2% FBS DPBS. Primary antibodies were diluted in 2% FBS DPBS. Cells were stained with 300 nM DAPI, and coverslips were mounted onto glass slides using ProLong Glass Antifade Mountant (Thermo Fisher Scientific). Confocal images were obtained using a Leica TCS SPE laser scanning confocal microscope.
(A) High power magnification immunofluorescence confocal images of HeLa cells expressing TDP-4FL stained for myc-TDP (green) Scale bar, 5 µm. […]
(C) Representative confocal microscopy immunofluorescence confocal images of HeLa cells […]
yellow represent cells that were categorized as anisosome morphology. Nuclei outline in white represent cells that were categorized as aggregate morphology. Cells with approximately more than 50% anisosome inclusions were categorized as anisosome morphology whereas cells with approximately more than 50% aggregate-like inclusions were categorized as aggregate morphology. Binucleate cells were excluded from the total counts. Scale bar, 10 µm.
(1 picture or pasted object on this page, not shown here)

[5] = 25 μM compound, 1 mM ATP, 50 nM VCP

T1 sequence (Q01853 whole entry R159H): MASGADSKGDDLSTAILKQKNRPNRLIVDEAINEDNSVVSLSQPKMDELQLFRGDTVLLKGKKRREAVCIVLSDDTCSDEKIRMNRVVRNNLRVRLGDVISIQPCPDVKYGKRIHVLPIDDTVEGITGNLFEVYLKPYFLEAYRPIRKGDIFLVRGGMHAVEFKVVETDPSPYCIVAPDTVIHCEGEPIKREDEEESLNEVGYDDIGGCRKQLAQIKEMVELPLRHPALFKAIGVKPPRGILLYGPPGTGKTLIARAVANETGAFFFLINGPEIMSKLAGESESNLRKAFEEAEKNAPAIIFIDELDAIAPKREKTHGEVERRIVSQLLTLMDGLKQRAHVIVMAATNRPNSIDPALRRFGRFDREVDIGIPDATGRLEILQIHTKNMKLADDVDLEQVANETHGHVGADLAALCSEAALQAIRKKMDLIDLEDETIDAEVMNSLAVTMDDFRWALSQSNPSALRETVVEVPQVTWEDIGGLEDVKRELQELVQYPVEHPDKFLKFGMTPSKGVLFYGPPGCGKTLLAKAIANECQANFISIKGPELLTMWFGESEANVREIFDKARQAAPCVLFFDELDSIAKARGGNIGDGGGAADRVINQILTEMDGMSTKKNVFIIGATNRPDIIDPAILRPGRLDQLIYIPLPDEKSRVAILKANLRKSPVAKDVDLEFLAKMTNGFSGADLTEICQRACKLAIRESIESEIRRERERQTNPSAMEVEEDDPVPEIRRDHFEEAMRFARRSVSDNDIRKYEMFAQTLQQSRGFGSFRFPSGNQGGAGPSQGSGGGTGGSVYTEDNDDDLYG
T2 sequence (Q01853 whole entry): as the sequence (Q01853 whole entry R159H) above, with H159R counted along it
T3 sequence (Q01853 whole entry R155H): as the sequence (Q01853 whole entry R159H) above, with R155H, H159R counted along it

COCCNC(=O)NC(=O)COC(=O)c1cc([N+](=O)[O-])ccc1Sc1nc(C)cs1 [UP109]
Integrated Fluorescence WT (Normalized to CHX) ([1]; 5μM compound with CHX): 1.011 and 0.958 and 1.026 and 0.960 and 0.926 and 0.822 and 0.883 and 0.671 | Integrated Fluorescence WT (Normalized to CHX) ([1]; 20μM compound with CHX): 0.950 and 0.938 and 0.974 and 0.870 and 0.844 and 0.840 and 0.850 and 0.749 | clearance of GFP-TDP-4FL aggregates (integrated fluorescence) ([1]; MG132, then CHX with 5 or 20 μM activator): enhances clearance of TDP-4FL inclusions | ATPase activity of R159H VCP (R159H VCP; [5]): increases ATPase activity | ATPase activity, nmol Pi / nmol VCP / s (R159H VCP; VCP Mutation R159H, replicate values): 1.124 nmol Pi / nmol VCP / s and 1.212 nmol Pi / nmol VCP / s and 1.056 nmol Pi / nmol VCP / s | EC50 (recombinant WT VCP [2]; EC50 (μM) (95% CI), WT VCP without UN, 50 nM VCP, 62.5 μM ATP, 2% DMSO): 24.7 µM | ATP consumed (recombinant WT VCP [2]; 1.56 μM compound): 0.864 nmol and 1.057 nmol and 1.000 nmol | ATP consumed (recombinant WT VCP [2]; 3.13 μM compound): 1.129 nmol and 1.166 nmol and 1.237 nmol | ATP consumed (recombinant WT VCP [2]; 6.25 μM compound): 1.129 nmol and 1.374 nmol and 1.469 nmol | ATP consumed (recombinant WT VCP [2]; 12.5 μM compound): 1.453 nmol and 1.583 nmol and 1.518 nmol | ATP consumed (recombinant WT VCP [2]; 25 μM compound): 1.644 nmol and 1.860 nmol and 1.582 nmol | ATP consumed (recombinant WT VCP [2]; 50 μM compound): 1.793 nmol and 1.914 nmol and 2.036 nmol | ATP consumed (recombinant WT VCP [2]; 100 μM compound): 1.926 nmol and 2.030 nmol and 2.160 nmol | ATP consumed (recombinant WT VCP [2]; 200 μM compound): 2.051 nmol and 2.217 nmol and 2.241 nmol | recombinant WT VCP ATPase activity (recombinant WT VCP [2]; in vitro validation of 106 screen hits): significantly increased | increase of VCP activity (recombinant WT VCP [2]; maximum, WT VCP without UN): 97% | decrease in KM compared with DMSO (recombinant WT VCP [3]; 25 μM activator): more than 2 fold | kcat (nmol Pi / nmol VCP / s) (95% CI) (recombinant WT VCP [3]; 25 μM activator): 0.489 (0.459, 0.520) nmol Pi / nmol VCP / s | increase in catalytic efficiency (kcat/KM) (recombinant WT VCP [3]; 25 μM activator, versus DMSO): > 4 fold | increase in kcat (recombinant WT VCP [3]; 25 μM activator, versus DMSO): 100% | ATPase activity v0/ET (recombinant WT VCP [3]; [ATP] 62.5 μM): 0.302 nmol Pi / nmol VCP / s and 0.325 nmol Pi / nmol VCP / s and 0.308 nmol Pi / nmol VCP / s | ATPase activity v0/ET (recombinant WT VCP [3]; [ATP] 125 μM): 0.374 nmol Pi / nmol VCP / s and 0.402 nmol Pi / nmol VCP / s and 0.380 nmol Pi / nmol VCP / s | ATPase activity v0/ET (recombinant WT VCP [3]; [ATP] 250 μM): 0.403 nmol Pi / nmol VCP / s and 0.414 nmol Pi / nmol VCP / s and 0.420 nmol Pi / nmol VCP / s | ATPase activity v0/ET (recombinant WT VCP [3]; [ATP] 500 μM): 0.423 nmol Pi / nmol VCP / s and 0.468 nmol Pi / nmol VCP / s and 0.467 nmol Pi / nmol VCP / s | ATPase activity v0/ET (recombinant WT VCP [3]; [ATP] 1000 μM): 0.455 nmol Pi / nmol VCP / s and 0.493 nmol Pi / nmol VCP / s and 0.498 nmol Pi / nmol VCP / s | luciferase activity (measured ATP without VCP) (luciferase; 62.5 μM ATP, increasing concentrations of compound): did not inhibit luciferase activity | measured ATP consumed (nmol) without VCP (luciferase; compound 6.25 μM): 3.224 nmol and 3.481 nmol and 3.557 nmol and 3.618 nmol and 3.348 nmol and 3.306 nmol and 3.280 nmol and 3.059 nmol and 3.211 nmol and 3.590 nmol and 3.249 nmol and 3.229 nmol | measured ATP consumed (nmol) without VCP (luciferase; compound 12.5 μM): 3.275 nmol and 3.593 nmol and 3.611 nmol and 3.469 nmol and 3.221 nmol and 3.387 nmol and 3.414 nmol and 3.086 nmol and 3.141 nmol and 3.174 nmol and 3.231 nmol and 3.422 nmol | measured ATP consumed (nmol) without VCP (luciferase; compound 25 μM): 3.285 nmol and 3.476 nmol and 3.450 nmol and 3.355 nmol and 3.220 nmol and 3.354 nmol and 3.314 nmol and 3.030 nmol and 3.217 nmol and 3.388 nmol and 3.578 nmol and 3.396 nmol | measured ATP consumed (nmol) without VCP (luciferase; compound 50 μM): 3.335 nmol and 3.348 nmol and 3.307 nmol and 3.386 nmol and 3.228 nmol and 2.949 nmol and 3.054 nmol and 3.211 nmol and 3.367 nmol and 3.287 nmol and 3.322 nmol | measured ATP consumed (nmol) without VCP (luciferase; compound 100 μM): 3.258 nmol and 3.303 nmol and 3.325 nmol and 3.212 nmol and 3.287 nmol and 3.191 nmol and 3.396 nmol and 3.257 nmol and 3.381 nmol and 3.296 nmol | measured ATP consumed (nmol) without VCP (luciferase; compound 200 μM): 3.338 nmol and 3.532 nmol and 3.360 nmol and 3.185 nmol and 3.242 nmol and 2.772 nmol and 3.166 nmol and 3.261 nmol and 3.507 nmol and 3.171 nmol and 3.672 nmol | ATPase activity of R155H VCP (R155H VCP; [5]): increases ATPase activity | ATPase activity, nmol Pi / nmol VCP / s (R155H VCP; VCP Mutation R155H, replicate values): 1.058 nmol Pi / nmol VCP / s and 1.110 nmol Pi / nmol VCP / s and 1.179 nmol Pi / nmol VCP / s | TDP-4FL aggregate morphology [4]: appeared to be smaller and in some cases revert to small anisosomes

From publication PMC11257039, “VCP activator reverses nuclear proteostasis defects and enhances TDP-43 aggregate clearance in multisystem proteinopathy models” (The Journal of Clinical Investigation, 2024)
